The text below walks through data of ChEMBL document CHEMBL1201862, “PubChem BioAssay data set” (2004).

Active and inactive are the calls of the source.

For assay [1], the target named is Polyadenylate-binding protein 1 (Homo sapiens, UniProt P11940). The assay can be described thus: blockers of PABP interaction with poly(A) – biochemical, fluorescence polarization, […] (AID 2014). (Fluorescence polarisation rises when a labelled molecule tumbles more slowly, as on binding a larger partner.)
Assay [2] concerns the target Eukaryotic translation initiation factor 4H (Homo sapiens, UniProt Q15056). The assay can be described thus: eIF4H binding inhibition – biochemical, uHTS, fluorescence polarization, translation initiation inhibitor project, primary screen (AID 2012).
Another assay deals with T1, Leucine aminopeptidase (Plasmodium falciparum 3D7, UniProt Q8IL11).
T1 sequence (Q8IL11 whole entry): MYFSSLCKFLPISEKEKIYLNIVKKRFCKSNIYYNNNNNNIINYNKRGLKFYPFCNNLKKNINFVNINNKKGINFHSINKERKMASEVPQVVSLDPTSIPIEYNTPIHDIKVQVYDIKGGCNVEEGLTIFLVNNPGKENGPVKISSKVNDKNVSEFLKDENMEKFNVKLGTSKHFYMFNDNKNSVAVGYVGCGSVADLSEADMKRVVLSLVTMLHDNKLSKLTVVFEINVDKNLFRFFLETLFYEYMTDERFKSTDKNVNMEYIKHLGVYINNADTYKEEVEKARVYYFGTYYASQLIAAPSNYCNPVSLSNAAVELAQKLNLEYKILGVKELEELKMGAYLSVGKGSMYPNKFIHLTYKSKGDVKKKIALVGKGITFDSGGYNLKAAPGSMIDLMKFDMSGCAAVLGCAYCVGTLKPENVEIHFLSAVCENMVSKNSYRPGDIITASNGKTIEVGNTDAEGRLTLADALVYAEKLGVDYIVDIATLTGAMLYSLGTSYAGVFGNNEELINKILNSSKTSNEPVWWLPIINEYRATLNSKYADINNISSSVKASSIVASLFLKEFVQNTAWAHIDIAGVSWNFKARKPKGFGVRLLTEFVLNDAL
As to the kind of experiment: P. falciparum M17LAP inhibitors, primary screen, biochemical, fluorogenic H-Leu-NHMec substrate, 1536-well (AID 1619). The format is functional.

Assay [3] can be described thus: viability of uninfected HEp-2 cells – cell-based, HTS, cytotoxicity control for RSV inhibitor project, dose response (AID 2410). The format is functional. The settings on record: human respiratory syncytial virus.
Assay [4] is described as follows: loss of viability in HepG2 cells – cell-based, CellTiter-Glo, cherry-picked, cytotoxicity control for Shn3 inhibitor project, dose response (AID 624134). The format is functional. (Cellular ATP, detected with luciferase, serves as a proxy for viable cell number.)
Assay [5] deals with Voltage-dependent T-type calcium channel subunit alpha-1H (Homo sapiens, UniProt O95180). The format is functional.
The nature of assay [6]: non-specific 3'UTR reporter inhibition in Clone20-Shn3RL – cell-based, Renilla luciferase, cherry-picked, counter-screen for Shn3 inhibitor project, dose response (AID 624133). The format is functional. For orientation: A counterscreen serves to expose hits that act by an unwanted route or on another target.
Assay [7] is described as follows: reduction of Shn3 3'UTR-driven luciferase in osteoblasts – cell-based, Clone20 osteoblasts, firefly luciferase, cherry-picked, dose response (AID 624132).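 Also: firefly luciferase luminescence from reporter carrying the Shn3 3'UTR in osteoblasts.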 It is filed as functional.
The nature of assay [8]: HepG2 cell cytotoxicity, dose response, cytotoxicity control for non-replicating M. tuberculosis project (AID 489018). It is filed as functional. The settings on record: Mycobacterium tuberculosis.
A further assay can be described thus: cells. It is filed as functional.
Assay [9] is described as follows: THP-1 cell cytotoxicity, dose response, cytotoxicity control for non-replicating M. tuberculosis project (AID 489025). The format is functional.
The nature of assay [10]: M. tuberculosis H37Rv growth inhibitors, H37Rv strain (AID 1626). It is filed as functional.
In the next assay the target is Trypsin (Sus scrofa, UniProt P00761). The assay can be described thus: trypsin protease activity blockade – biochemical, quenched peptide fluorescence, cherry-pick, selectivity assay for Rce1 protease inhibitor project, dose response (AID 488789).
Assay [11] deals with Induced myeloid leukemia cell differentiation protein Mcl-1 (Homo sapiens, UniProt Q07820). The format is functional.
The next assay concerns the target T2, Protein RecA (Mycobacterium tuberculosis, UniProt P9WHJ3).
T2 sequence (P9WHJ3 whole entry): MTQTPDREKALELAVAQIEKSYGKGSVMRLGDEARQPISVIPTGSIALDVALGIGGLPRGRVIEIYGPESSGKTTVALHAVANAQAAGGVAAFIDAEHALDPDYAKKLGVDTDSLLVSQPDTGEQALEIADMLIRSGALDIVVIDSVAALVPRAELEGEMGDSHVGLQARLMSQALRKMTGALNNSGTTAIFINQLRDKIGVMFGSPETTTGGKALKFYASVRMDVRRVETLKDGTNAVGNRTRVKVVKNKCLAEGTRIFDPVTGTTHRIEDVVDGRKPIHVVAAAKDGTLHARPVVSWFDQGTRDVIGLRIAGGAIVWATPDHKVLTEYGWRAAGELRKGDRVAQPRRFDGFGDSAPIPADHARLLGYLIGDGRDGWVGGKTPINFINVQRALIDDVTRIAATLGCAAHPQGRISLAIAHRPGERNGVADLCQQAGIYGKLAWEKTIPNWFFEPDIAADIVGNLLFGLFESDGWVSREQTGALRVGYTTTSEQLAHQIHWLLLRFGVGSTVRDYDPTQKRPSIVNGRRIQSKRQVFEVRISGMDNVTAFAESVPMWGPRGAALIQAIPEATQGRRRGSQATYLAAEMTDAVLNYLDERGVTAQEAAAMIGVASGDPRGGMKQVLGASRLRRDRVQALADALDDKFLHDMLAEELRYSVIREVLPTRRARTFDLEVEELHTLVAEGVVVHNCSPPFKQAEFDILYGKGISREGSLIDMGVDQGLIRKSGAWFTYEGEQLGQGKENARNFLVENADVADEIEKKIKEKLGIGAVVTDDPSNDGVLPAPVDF
The assay can be described thus: Fluorescence Cell-Free Homogeneous Dose Retest to Identify Inhibitors of RecA-Intein Splicing Activity. [Related pubchem assays (depositor defined):AID2097, AID2223, AID489010, AID492950]. The format is functional.

For assay [12], the target named is T3, Replicative DNA helicase DnaB (Mycobacterium tuberculosis, UniProt P9WMR3).
T3 sequence (P9WMR3 whole entry): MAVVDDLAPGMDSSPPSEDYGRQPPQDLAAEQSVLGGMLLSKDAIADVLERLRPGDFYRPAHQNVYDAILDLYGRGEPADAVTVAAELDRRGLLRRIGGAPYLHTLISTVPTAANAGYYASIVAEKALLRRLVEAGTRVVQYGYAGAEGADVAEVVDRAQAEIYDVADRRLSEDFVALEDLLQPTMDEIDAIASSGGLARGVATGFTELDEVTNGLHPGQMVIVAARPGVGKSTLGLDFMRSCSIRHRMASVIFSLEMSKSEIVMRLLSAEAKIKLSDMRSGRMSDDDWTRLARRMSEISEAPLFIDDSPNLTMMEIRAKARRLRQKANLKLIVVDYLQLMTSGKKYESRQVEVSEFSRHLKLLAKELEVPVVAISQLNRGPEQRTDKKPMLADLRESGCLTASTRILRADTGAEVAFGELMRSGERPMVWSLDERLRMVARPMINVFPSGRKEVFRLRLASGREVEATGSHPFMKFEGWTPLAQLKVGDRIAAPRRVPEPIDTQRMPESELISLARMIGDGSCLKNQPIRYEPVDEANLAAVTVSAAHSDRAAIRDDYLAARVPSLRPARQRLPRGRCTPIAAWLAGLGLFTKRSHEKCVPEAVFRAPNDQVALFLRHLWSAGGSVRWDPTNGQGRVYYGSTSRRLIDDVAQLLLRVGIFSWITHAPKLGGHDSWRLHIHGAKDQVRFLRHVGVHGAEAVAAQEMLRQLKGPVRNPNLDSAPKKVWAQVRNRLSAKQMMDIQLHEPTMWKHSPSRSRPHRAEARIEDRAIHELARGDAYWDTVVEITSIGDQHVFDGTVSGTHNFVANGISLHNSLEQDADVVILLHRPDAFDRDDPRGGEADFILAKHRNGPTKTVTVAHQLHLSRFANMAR
The assay can be described thus: DnaB intein splicing inhibitors, dose response, biochemical, cell-free fluorescence (AID 449749). It is filed as functional.

In assay [13] the target is T4, SUMO-activating enzyme (Homo sapiens, UniProt Q9UBT2). As to the kind of experiment: blockers of SAE1/SAE2–UBC9 SUMO transfer – biochemical, HTRF, uHTS, primary screen (AID 2006). The format is protein-complex assay.
The target of assay [14] is T4, SUMO-activating enzyme. The assay can be described thus: blockers of UBC9-mediated SUMO conjugation – biochemical, AlphaScreen, SUMOylation inhibitor project, confirmation (AID 2018). It is filed as functional.

Chain of Voltage-dependent T-type calcium channel subunit alpha-1H (O95180 whole entry): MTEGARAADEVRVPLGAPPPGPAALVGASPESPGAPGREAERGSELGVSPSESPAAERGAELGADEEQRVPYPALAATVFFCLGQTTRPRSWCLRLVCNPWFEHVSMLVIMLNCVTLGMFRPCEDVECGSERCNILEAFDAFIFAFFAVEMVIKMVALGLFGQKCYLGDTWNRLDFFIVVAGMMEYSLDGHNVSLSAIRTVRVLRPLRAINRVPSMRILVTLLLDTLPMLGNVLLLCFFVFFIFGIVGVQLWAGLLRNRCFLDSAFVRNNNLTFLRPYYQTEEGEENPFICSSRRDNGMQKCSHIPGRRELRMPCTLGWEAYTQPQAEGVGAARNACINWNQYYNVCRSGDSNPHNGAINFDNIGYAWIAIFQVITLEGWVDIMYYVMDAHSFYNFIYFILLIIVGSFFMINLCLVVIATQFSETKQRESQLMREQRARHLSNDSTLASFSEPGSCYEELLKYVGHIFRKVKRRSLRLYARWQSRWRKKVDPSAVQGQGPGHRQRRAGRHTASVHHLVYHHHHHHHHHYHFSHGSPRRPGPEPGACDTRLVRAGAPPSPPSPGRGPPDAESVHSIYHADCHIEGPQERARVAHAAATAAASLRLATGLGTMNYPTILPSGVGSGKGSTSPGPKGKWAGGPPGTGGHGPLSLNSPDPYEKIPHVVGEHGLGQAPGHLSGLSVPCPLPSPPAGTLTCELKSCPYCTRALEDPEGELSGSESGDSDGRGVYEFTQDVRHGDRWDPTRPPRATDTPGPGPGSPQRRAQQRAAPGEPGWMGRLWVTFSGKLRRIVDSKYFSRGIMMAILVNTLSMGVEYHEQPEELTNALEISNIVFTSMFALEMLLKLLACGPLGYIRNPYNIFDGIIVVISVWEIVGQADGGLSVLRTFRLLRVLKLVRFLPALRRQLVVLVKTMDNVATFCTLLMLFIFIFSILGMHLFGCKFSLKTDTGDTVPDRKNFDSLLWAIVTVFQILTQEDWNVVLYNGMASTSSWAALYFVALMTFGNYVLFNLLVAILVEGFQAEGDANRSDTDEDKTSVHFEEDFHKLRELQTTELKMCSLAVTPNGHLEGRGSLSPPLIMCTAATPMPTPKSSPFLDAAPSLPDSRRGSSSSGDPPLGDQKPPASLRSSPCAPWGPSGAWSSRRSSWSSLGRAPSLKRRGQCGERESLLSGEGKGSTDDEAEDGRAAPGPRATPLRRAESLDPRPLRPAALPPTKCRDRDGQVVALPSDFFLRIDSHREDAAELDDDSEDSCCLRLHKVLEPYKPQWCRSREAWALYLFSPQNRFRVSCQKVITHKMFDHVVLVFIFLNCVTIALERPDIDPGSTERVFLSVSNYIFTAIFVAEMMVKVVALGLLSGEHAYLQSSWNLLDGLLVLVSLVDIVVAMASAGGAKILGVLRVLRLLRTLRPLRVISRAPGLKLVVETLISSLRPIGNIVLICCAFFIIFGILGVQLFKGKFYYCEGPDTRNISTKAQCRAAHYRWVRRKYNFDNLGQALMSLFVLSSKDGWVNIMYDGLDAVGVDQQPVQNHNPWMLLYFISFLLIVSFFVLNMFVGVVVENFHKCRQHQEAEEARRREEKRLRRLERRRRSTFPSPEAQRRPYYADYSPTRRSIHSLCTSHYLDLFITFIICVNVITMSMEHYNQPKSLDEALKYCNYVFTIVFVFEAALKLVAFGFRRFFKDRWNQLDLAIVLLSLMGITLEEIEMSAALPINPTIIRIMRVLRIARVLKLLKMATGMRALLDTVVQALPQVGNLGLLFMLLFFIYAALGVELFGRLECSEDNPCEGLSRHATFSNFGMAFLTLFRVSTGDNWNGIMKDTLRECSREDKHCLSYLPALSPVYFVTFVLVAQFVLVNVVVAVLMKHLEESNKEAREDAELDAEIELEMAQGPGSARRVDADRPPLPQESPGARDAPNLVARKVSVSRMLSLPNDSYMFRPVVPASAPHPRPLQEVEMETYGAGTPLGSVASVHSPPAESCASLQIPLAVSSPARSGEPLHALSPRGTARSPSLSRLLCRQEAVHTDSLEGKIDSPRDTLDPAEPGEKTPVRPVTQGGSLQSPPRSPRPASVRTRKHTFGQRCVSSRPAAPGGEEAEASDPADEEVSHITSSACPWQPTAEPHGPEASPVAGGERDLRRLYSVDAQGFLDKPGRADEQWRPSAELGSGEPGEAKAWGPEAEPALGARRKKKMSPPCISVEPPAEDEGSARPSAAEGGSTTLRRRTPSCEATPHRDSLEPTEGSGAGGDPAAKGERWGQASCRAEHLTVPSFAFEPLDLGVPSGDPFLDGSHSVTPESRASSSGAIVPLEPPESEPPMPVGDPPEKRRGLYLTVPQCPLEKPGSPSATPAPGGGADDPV
T4 sequence (Q9UBE0 whole entry): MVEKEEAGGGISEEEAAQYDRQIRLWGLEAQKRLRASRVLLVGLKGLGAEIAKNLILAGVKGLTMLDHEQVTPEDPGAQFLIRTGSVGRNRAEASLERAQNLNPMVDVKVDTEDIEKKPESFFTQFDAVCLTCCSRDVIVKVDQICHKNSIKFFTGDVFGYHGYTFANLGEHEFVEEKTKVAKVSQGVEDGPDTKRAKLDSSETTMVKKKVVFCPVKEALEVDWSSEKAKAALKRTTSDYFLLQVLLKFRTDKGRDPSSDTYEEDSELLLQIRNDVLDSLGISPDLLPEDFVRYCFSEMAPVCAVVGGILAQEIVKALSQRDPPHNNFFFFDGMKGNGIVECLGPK
T4 sequence (Q9UBT2 whole entry): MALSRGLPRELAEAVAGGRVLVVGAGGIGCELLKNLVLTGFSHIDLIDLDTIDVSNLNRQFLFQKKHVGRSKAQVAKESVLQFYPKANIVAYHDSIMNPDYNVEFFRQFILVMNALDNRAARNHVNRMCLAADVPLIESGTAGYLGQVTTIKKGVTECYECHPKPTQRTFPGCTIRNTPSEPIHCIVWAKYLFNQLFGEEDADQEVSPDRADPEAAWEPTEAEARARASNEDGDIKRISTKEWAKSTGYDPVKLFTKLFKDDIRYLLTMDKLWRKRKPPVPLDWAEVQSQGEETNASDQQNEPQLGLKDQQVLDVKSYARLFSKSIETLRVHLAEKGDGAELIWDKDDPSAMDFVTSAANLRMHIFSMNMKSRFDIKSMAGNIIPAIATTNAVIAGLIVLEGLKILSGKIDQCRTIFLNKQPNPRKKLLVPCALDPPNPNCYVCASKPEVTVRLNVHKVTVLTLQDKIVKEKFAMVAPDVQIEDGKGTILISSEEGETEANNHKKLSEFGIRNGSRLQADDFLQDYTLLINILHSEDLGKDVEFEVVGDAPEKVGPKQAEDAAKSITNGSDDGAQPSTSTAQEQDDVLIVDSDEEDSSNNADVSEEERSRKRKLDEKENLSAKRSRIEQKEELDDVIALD
Chain of Polyadenylate-binding protein 1 (P11940 whole entry): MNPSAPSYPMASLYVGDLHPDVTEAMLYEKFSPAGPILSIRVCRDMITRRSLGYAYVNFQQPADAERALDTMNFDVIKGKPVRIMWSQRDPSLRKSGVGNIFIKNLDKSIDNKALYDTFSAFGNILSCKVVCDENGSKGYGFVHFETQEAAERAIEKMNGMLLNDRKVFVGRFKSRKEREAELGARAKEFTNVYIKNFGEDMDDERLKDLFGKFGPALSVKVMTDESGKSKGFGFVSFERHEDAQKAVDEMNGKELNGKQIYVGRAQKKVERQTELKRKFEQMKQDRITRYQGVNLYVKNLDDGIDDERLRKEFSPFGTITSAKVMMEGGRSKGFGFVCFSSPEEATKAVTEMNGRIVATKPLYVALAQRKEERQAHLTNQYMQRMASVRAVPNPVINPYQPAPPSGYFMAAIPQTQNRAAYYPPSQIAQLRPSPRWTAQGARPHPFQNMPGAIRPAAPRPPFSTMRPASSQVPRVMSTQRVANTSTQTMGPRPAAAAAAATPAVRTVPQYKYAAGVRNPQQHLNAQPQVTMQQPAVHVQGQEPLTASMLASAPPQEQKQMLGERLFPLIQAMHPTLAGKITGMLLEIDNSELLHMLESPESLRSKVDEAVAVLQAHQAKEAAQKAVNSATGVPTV
Chain of Trypsin (P00761 whole entry): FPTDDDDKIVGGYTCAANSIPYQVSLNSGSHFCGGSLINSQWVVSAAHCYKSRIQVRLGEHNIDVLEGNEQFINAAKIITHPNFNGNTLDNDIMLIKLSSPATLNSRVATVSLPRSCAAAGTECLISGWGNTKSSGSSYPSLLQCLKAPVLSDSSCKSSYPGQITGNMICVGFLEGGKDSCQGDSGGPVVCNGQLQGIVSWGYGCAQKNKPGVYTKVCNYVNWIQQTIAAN
Chain of Induced myeloid leukemia cell differentiation protein Mcl-1 (Q07820 whole entry): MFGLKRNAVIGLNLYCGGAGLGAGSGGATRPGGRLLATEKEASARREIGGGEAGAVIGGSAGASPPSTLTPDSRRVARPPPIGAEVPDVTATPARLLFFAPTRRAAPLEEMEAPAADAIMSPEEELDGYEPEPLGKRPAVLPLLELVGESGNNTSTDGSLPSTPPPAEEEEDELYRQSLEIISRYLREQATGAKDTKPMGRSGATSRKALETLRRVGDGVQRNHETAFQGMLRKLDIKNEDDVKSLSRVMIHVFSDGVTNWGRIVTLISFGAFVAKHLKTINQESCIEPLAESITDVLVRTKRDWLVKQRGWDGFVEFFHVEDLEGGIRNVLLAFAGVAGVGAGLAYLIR

On to `CCN1CCN(c2nc3ccccc3nc2C(C#N)C(=O)OCc2ccccc2)CC1` (stereo not given), for which the half-maximal inhibitory concentration (IC50) in [1] is 44.8 µM (active); in assay [2] it was 93.8 µM (active).

Consider `CC1=CC(C)C2C(=O)N(CCC[N+](C)(C)C)C(=O)C2C1` (stereo not given), for which the figures for the IC50 in assay [1] and in [2] were 6.94 µM (active) and 97.8 µM (active), respectively.

As for `COc1ccc(-n2c(SCC(=O)Nc3ccc(C(=O)O)cc3)nnc2-c2cccs2)cc1`, the IC50 at Leucine aminopeptidase was 14.5 µM (active).

Consider `CC(C)(C)n1nnnc1C(c1ccc(C(F)(F)F)cc1)N(Cc1ccc(F)cc1)Cc1ccco1` (stereo not given), for which the cytotoxic concentration (CC50) in [3] was 10.3 µM (active). Besides, the AC50 in assay [4] is 40.3 µM (active); in assay [6], 18.8 µM (active); in [7] it was 10.1 µM (active). Moreover, in assay [5], the EC50 is 2.84 µM (active).

Take `COc1ccc(C(=O)Oc2cccc3cccnc23)cc1S(=O)(=O)N1CCOCC1`: the figures for the CC50 in assay [8] and in assay [9] were 18 µM (active) and 26.6 µM (active), respectively. Besides, in “cells”, the IC50 is 6.24 µM (active).

Turning to `CC/C(=N\n1nnnc1Nc1ccccc1)c1ccccc1`, the EC50 in assay [5] is 5.34 µM (active).

Consider `CCOC(=O)c1ccc(NC(=O)C2C3CCC(C3)C2C(=O)O)cc1` (stereo not given), for which the IC50 on Leucine aminopeptidase was 20 µM (active); in [10] it was > 100 µM (active).

In the case of `Cc1cccc(NC(=O)CNc2cc(C)ccc2C)c1`, the EC50 in assay [5] is 15.2 µM (active).

As to `COc1c2ccoc2nc2c(OC)cccc12` [GAMMA-FAGARINE], at Trypsin, the AC50 is 9.78 µM (active).

Turning to `COc1cc(C(=O)Nc2ccc3c(c2)C(=O)c2ccccc2C3=O)cc(OC)c1OC`, the IC50 in [11] is 2.77 µM (active).

For the compound `O=C(Nc1ccc(S(=O)(=O)N2CCCCCC2)cc1)c1ccc(Br)o1`, the half-maximal effective concentration (EC50) in assay [5] is 7.13 µM (active).

As for `N#CC1=C(N)Oc2[nH]nc(-c3ccc(F)cc3)c2C1c1ccncc1` (stereo not given), the EC50 on Protein RecA was 5.79 µM (active). Further, in assay [12], the AC50 is 7.34 µM (active). In addition, the IC50 at Leucine aminopeptidase was 94.3 µM (active).

For the compound `Cc1cc(/C=C2\C(=N)N3N=C(c4ccco4)SC3=NC2=O)c(C)n1Cc1ccccc1`, the IC50 is 7.54 µM (active) on SUMO-activating enzyme [13] and 8.55 µM (active) at SUMO-activating enzyme [14].

A word on the IC50: it is the point on the concentration scale where inhibition reaches its midpoint. The CC50 is the concentration that lowers cell viability or growth by half. What is called AC50 is the midpoint of the concentration-response curve, whichever way the signal moves. The EC50 is the midpoint of the concentration-response curve.
